From ChEMBL document CHEMBL1201862, “PubChem BioAssay data set” (2004) come the findings set out here.

Activity calls are given as the source filed them.

Data set [1] can be described thus: Trypanosoma cruzi growth suppression in host cells – NIH3T3 host cells, beta-gal luminescence, confirmation (AID 2044).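 Further: intracellular parasites grown in NIH/3T3 mouse fibroblasts as host cells; luminescent beta-galactosidase reporter signal from transgenic T. cruzi replicating inside host cells; inhibitors lower the luminescence signal.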 It counts as functional, cell-based.
Data set [2] can be described thus: NIH3T3 cell viability loss – ATP luminescence, mouse fibroblasts, counter-screen, dose response (AID 2010).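 Further: cells exposed to compound for about 90 hours before reading.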 It is filed as functional, cell-based.
Data set [3] deals with Streptococcus sp. 'group A'. As to the kind of experiment: Streptococcus pyogenes SK(-)GAS viability under kanamycin – luminescence, BacTiterGlo, confirmation, counter-screen for streptokinase expression inhibitor project, dose response (AID 1900). It counts as functional, organism-based.
A further data set concerns Streptococcus. The data set can be described thus: GAS UMAA2166 growth inhibition – luminescence, BacTiterGlo, counter-screen for streptokinase expression inhibitor project, dose response (AID 1915).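 Further: potency for reduction of bacterial viability or growth.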 It counts as functional, organism-based. On the technique in general: Counterscreens check selectivity or assay interference.
The next data set addresses Cytochrome P450 2C19 (Homo sapiens, UniProt P33261). The data set can be described thus: Cytochrome panel assay with activity outcomes. Panel member name: p450-cyp2c19 Compounds with AC50 equal or less than 10 uM are considered active. It is filed as functional.

Sequence of Cytochrome P450 2C19 (P33261 whole entry): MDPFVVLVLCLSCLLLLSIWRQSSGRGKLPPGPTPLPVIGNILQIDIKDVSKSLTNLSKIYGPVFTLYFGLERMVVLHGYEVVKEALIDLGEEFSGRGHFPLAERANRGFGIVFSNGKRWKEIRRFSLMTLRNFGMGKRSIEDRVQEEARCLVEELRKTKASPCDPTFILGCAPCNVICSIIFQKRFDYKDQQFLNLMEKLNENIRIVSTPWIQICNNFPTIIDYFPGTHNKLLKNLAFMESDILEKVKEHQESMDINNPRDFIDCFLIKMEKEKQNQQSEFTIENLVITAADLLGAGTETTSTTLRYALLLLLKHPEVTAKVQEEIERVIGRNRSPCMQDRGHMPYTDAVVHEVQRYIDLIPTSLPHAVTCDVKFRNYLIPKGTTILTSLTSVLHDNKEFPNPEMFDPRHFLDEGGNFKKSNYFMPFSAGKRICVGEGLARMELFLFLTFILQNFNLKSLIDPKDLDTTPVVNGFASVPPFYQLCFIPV

For `N#Cc1cnn(-c2nc(SCc3ccccc3)nc3sc4c(c23)CCCC4)c1N`, the values for the EC50 in data set [1] and in data set [2] were 2.24 µM (active) and > 60 µM (not active), respectively.

In the case of `Cc1cc(C(F)(F)F)c2c(n1)sc1c(O)cc(O)nc12`, the results for the EC50 (in data set [3]; in the data set with Streptococcus) were 27.8 µM (active) and > 150 µM (not active), respectively. With `COc1ccc(/C=C2\CCCc3c2nc2ccccc2c3C(=O)OCC(=O)c2c(N)n(C)c(=O)n(C)c2=O)cc1`, the concentration for a half-maximal effect (EC50) in data set [1] is 1.05 µM (active); in data set [2] it was > 60 µM (not active). Consider `COc1ccc(NC(=O)N2CCCC3(CCNCC3)C2)cc1`, for which the AC50 entry on Cytochrome P450 2C19 is given as “inconclusive”.

On to `CN1CCC(N(C)S(=O)(=O)c2ccc(NC(=O)COc3cccc(Cl)c3)cc2)CC1`, for which the EC50 in data set [1] was 0.268 µM (active); in data set [2], > 30 µM (not active). With `NC(=S)N/N=C/c1ccc(-c2cc(Cl)c(Cl)cc2Cl)o1`, the half-maximal effective concentration (EC50) in data set [1] is 0.122 µM (active); in data set [2], > 60 µM (inconclusive).

For `CCN(CC)CCNc1c2c(c(C#N)c3nc4ccccc4n13)CCCC2`, the concentration giving a half-maximal response (EC50) in data set [1] was 0.226 µM (active); in data set [2] it was > 60 µM (not active). As to `Fc1ccc(N/N=C/c2ccc(N3CCOCC3)cc2)c(F)c1`, the values for the EC50 in data set [1] and in data set [2] were 0.406 µM (active) and > 30 µM (not active), respectively. On to `COc1ccccc1NC(=O)CCN1C(=O)C2CC=C(Cl)CC2C1=O` (centres undefined), for which, on Cytochrome P450 2C19 (read-out: AC50), the AC50 is 7.94 µM (inconclusive).

In the case of `O=[N+]([O-])c1ccc2c(OCc3nnc(-c4ccccc4Br)o3)ncnc2c1`, the EC50 in data set [1] is 0.213 µM (active); in data set [2] it was 10.4 µM (active).

In the case of `COCc1c(Br)c(C)nc(OCC(=O)N/N=C/c2cc(C)n(-c3ccc([N+](=O)[O-])cc3)c2C)c1C#N`, the EC50 is 1.95 µM (active) in data set [1] and > 60 µM (not active) in data set [2].

`Cc1cc(C)c(C#N)c(Oc2ccc(F)cc2)n1`: at Cytochrome P450 2C19 (read-out: AC50), the AC50 was 39.8 µM (inconclusive). Same read-out and setting: to `Cc1nc2ncnn2c(O)c1NC(=O)CC12CC3CC(CC(C3)C1)C2` belongs 44.7 µM (inconclusive). For the compound `CC(C)=NO[C@@H](C)c1cn([C@@H]2COC[C@@H]2O)nn1`, the AC50 result on Cytochrome P450 2C19 is reported as “inconclusive”. In the case of `O=C(Nc1nc(-c2ccccc2)c(-c2ccccc2)s1)c1ccc(S(=O)(=O)N(CCCl)CCCl)cc1`, the EC50 in data set [1] is 1.25 µM (active); in data set [2], > 30 µM (not active).

In the case of `CC(C)CN1CCCC(N2CCN(c3cccc(Cl)c3)CC2)C1` (centres undefined), the EC50 in data set [1] was 3.19 µM (active); in data set [2], > 60 µM (not active).

For the compound `O=C(c1ccc([N+](=O)[O-])s1)N1CCc2ccccc2C1`, the results for the EC50 in data set [1] and in data set [2] were 0.476 µM (active) and > 60 µM (not active), respectively. Turning to `CCCC(=O)NNC(=O)Nc1ccccc1`, on Cytochrome P450 2C19 (read-out: AC50), the AC50 is 28.2 µM (inconclusive). Turning to `CCCCCCSc1ccc(-c2nc3ccc(C)cn3c2NCc2ccccc2)cc1OC`, the EC50 is 0.701 µM (active) in data set [1] and 8.59 µM (active) in data set [2]. With `CCOC(=O)Nc1ccc2c(c1)N(C(=O)CCN(C)C)c1ccccc1S2`, the EC50 in data set [1] is 1.8 µM (active); in data set [2], > 60 µM (not active). As to `Cn1cc(CN2CCCC(CO)(Cc3ccccc3)C2)c2ccccc21` (centres undefined), the EC50 in data set [1] was 0.62 µM (active); in data set [2], > 60 µM (not active).

Regarding `CC1CC(=O)c2cnc(N)nc2C1` (centres undefined), the concentration at half-maximal activity (AC50) entry on Cytochrome P450 2C19 is recorded as “inconclusive”. For the compound `CC(C)CCN1CCN(C2CCN(c3ccc4c(c3)OCO4)CC2)CC1CCO` (centres undefined), the concentration giving a half-maximal response (EC50) is 1.56 µM (active) in data set [1] and > 60 µM (not active) in data set [2].

One may read the EC50 as the midpoint of the concentration-response curve. Usually AC50 stands for the concentration giving half of the maximal activity seen.
